This is an account of results in publication PMC8652888, “Angiogenesis, Anti-Tumor, and Anti-Metastatic Activity of Novel α-Substituted Hetero-Aromatic Chalcone Hybrids as Inhibitors of Microtubule Polymerization” (Frontiers in Chemistry, 2021).

In general, IC50 refers to the midpoint of a concentration-inhibition curve. A word on the melting point: it is the temperature, or range, at which the solid turns liquid.

Structures are written as SMILES. Read-outs that look alike come from different tables or passages of the source.

In data set [1] the test system is MCF-7. Put plainly: Antiproliferative activity, SRB assay. Particulars: Homo sapiens. It counts as cell-based, human. In general terms: In SRB staining, fixed cells bind dye roughly in proportion to their protein.
In data set [2] the test system is U937. Put plainly: Antiproliferative activity, CCK-8 assay. The data set is classed as cell-based. As to conditions: Homo sapiens, U-937. As to the method: (§1) The synthesized compounds were first evaluated for their cytotoxic effect on MCF-7 (human breast adenocarcinoma), U937 (histiocytic lymphoma cancer), HepG2 (human liver cancer) cells, and MGC-803 (human gastric cancer) using the SRB and CCK-8 assay. As reference compounds CA-4 and colchicine were included.
(§2) The primary tumor cells were purchased from a professional biomedical company. First, the primary tumor cells were incubated in a cell culture incubator at 37°C and 5% CO2. After the cell fusion reached 85%–95%, subculture was performed, and the tumor cells obtained at this time were used for subsequent related experiments. The CCK-8 method was used to inhibit the proliferation of U937 tumor cells, and the SRB method was used to inhibit the proliferation of MCF7 and HepG2 tumor cells.
The cells in the logarithmic growth phase were seeded in a 96-well plate at 8,000/well, and the drug-containing medium and cell suspension were added to the well. Three wells were added with the blank medium as the blank group. The 96-well plate was incubated for 72 h in a 37°C, 5% CO2 incubator. The 10 μl of CCK-8 dye solution was added to each well, and the incubation continued for 3–4 h.
(Tetrazolium dyes change colour on reduction, which living cells bring about.)

Data set [3] has as its system HepG2. Nature of the data set: Antiproliferative activity, SRB assay. The data set is classed as cell-based, human. As to conditions: Homo sapiens, HepG2. The method, then:
as §1, §2
Cells were distributed into 96-well plates with a density of 3 × 10^3–4 × 10^3 cells per well and incubated for 24 h in a 5% CO2 incubator at 37°C, followed by treatment with study compounds at different concentrations at 37°C for 72 h. One hundred microliters of 10% (w/v) trichloroacetic acid was added to each well, fixed at 4°C for 30 min, and dried at 65°C. Then 100 μl of 0.4% SRB was added to each well and stained on a shaker for 20 min at room temperature. The excess dye solution was washed with newly prepared 1% glacial acetic acid and dried at 65°C. One hundred fifty microliters of 10 mM unbuffered Trisbase was added to each well of the plate and shaken for 5 min to dissolve the dye. The microplate reader measured the optical density (OD) at a wavelength of 560 nm.

The mark [4] stands for this setting: MCF7, 72 h, 72 h, triplicate, mean ± SD, read-out: IC50 ± SD, MCF-7.
Setting [5] is: 72 h, triplicate, mean ± SD, read-out: IC50 ± SD, U937.
Where [6] appears, read: 72 h, triplicate, mean ± SD, read-out: IC50 ± SD, HepG2.
Setting [7] is: supplement raw data of table 2, read-out: IC50(U937).
Where [8] appears, read: supplement raw data of table 2, read-out: IC50(Hepg2).
Where [9] appears, read: MCF7, supplement raw data of table 2, read-out: IC50(MCF-7).
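Wherever IC50 ± SD, MCF-7 is given: proliferation of MCF7 cells quantified by sulforhodamine B staining, with optical density read at 560 nm.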
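Wherever IC50(MCF-7) is given: proliferation of MCF7 cells quantified by sulforhodamine B staining, with optical density read at 560 nm.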

Consider `COC(=O)c1cccc2[nH]cc(/C=C(\C#N)C(=O)c3cc(OC)c(OC)c(OC)c3)c12` [Compound 8d, methyl(E)-3-(2-cyano-3-oxo-3-(3,4,5-trimethoxyphenyl)prop-1-en-1-yl)-1H-indole-4-carboxylate], for which the melting point was 176.7 to 178.2 °C. Also, the IC50 in data set [1] (setting [4]) was > 20 µM. Further, in data set [2] (setting [5]), the IC50 is 8.58 ± 0.178 µM. For the same compound, in data set [3] (setting [6]), the IC50 was > 20 µM.

`COc1cc(C(=O)/C(C#N)=C/c2cc3c(cc2[N+](=O)[O-])OCO3)cc(OC)c1OC` [Compound 8k, (E)-3-[6-nitrobenzo(d)(1,3)dioxol-5-yl]-2-(3,4,5-trimethoxybenzoyl)acrylonitrile] registered a melting point of 160.1 to 163.8 °C. Besides, the IC50 in data set [1] (setting [4]) stood at 16.43 ± 0.042 µM. Besides, the half-maximal inhibitory concentration (IC50) in data set [2] (setting [5]) worked out at 14.31 ± 0.127 µM. In addition, the IC50 in data set [2] (setting [7]) came to 14.3 µM. Further, the IC50 in data set [3] (setting [6]) was 18.74 ± 0.035 µM. Moreover, in data set [3] (setting [8]), the IC50 came to 18.7 µM.

For the compound `COc1cc(C(=O)/C(C#N)=C/c2cccc3c2OCO3)cc(OC)c1OC` [Compound 8s, (E)-3-[benzo(d)(1,3)dioxol-4-yl]-2-(3,4,5-trimethoxybenzoyl)acrylonitrile], the melting point is 176.3 to 177.8 °C. In addition, the IC50 in data set [1] (setting [4]) was > 20 µM. Also, the half-maximal inhibitory concentration (IC50) in data set [2] (setting [5]) is > 20 µM. In addition, the IC50 in data set [3] (setting [6]) was > 20 µM.

As to `COc1cc(C(=O)/C(C)=C/c2ccc3c(c2)CCO3)cc(OC)c1OC` [Compound 7n, (E)-3-(2,3-dihydrobenzofuran-5-yl)-2-methyl-1-(3,4,5-trimethoxyphenyl)prop-2-en-1-one], the half-maximal inhibitory concentration (IC50) in data set [1] (setting [4]) was 0.02 ± 0.002 µM; in data set [1] (setting [9]) it was 0.0195 µM; in data set [2] (setting [5]) it was 0.011 ± 0.002 µM; in data set [2] (setting [7]), 0.0108 µM; in data set [3] (setting [6]), 0.002 ± 0.0001 µM; in data set [3] (setting [8]), 0.00221 µM.

`COc1cc(C(=O)/C(C#N)=C/c2coc3ccccc23)cc(OC)c1OC` [Compound 8j, (E)-3-(benzofuran-3-yl)-2-(3,4,5-trimethoxybenzoyl)acrylonitrile]: the melting point fell in the range of 176.5 to 178.4 °C. Moreover, the IC50 in data set [1] (setting [4]) was > 20 µM. Besides, the IC50 in data set [2] (setting [5]) was > 20 µM. For the same compound, in data set [3] (setting [6]), the half-inhibitory concentration (IC50) was > 20 µM.

`COC(=O)c1ccc2c(/C=C(\C#N)C(=O)c3cc(OC)c(OC)c(OC)c3)c[nH]c2c1` [Compound 8f, methyl(E)-3-(2-cyano-3-oxo-3-(3,4,5-trimethoxyphenyl)prop-1-en-1-yl)-1H-indole-6-carboxylate] came in with a melting point of 239.7 to 241 °C. In addition, the IC50 in data set [1] (setting [4]) is > 20 µM. Moreover, the IC50 in data set [2] (setting [5]) was > 20 µM. For the same compound, the IC50 in data set [3] (setting [6]) was > 20 µM.

In the case of `COc1cc(C(=O)/C(C)=C/c2c(C)[nH]c3ccccc23)cc(OC)c1OC` [Compound 7b, (E)-2-methyl-3-(2-methyl-1H-indol-3-yl)-1-(3,4,5-trimethoxyphenyl)prop-2-en-1-one], the melting point is 152.7 to 153.2 °C. Moreover, the IC50 in data set [1] (setting [4]) worked out at 0.584 ± 0.016 µM. Moreover, in data set [1] (setting [9]), the 50% inhibitory concentration (IC50) worked out at 0.584 µM. In data set [2] (setting [5]), the IC50 came to 3.08 ± 0.433 µM. Moreover, the IC50 in data set [3] (setting [6]) came to 10.8 ± 0.629 µM.

The compound `COc1cc(C(=O)/C(C)=C/c2cccc3c2OCO3)cc(OC)c1OC` [Compound 7s, (E)-3-(benzo[d][1,3]dioxol-4-yl)-2-methyl-1-(3,4,5-trimethoxyphenyl)prop-2-en-1-one] had a melting point of 119.7 to 120.9 °C. In data set [1] (setting [4]), the IC50 was 0.225 ± 0.005 µM. Further, the 50% inhibitory concentration (IC50) in data set [2] (setting [5]) came out at 0.353 ± 0.006 µM. In data set [2] (setting [7]), the IC50 is 0.353 µM. Further, in data set [3] (setting [6]), the IC50 came to 0.259 ± 0.005 µM. For the same compound, in data set [3] (setting [8]), the half-inhibitory concentration (IC50) was 0.259 µM.

In turn, `COc1cc(C(=O)/C(C#N)=C/c2c[nH]c3cc(Br)ccc23)cc(OC)c1OC` [Compound 8g, (E)-3-(6-bromo-1H-indol-3-yl)-2-(3,4,5-trimethoxybenzoyl)acrylonitrile] yielded a melting point of 266.5 to 268.2 °C. The half-maximal inhibitory concentration (IC50) in data set [1] (setting [4]) is 2.161 ± 0.009 µM. The IC50 in data set [2] (setting [5]) was 2.51 ± 0.029 µM. In data set [3] (setting [6]), the half-inhibitory concentration (IC50) amounted to 1.43 ± 0.049 µM.

Compound `COc1cc(C(=O)/C(C#N)=C/c2nc3ccccc3n2C)cc(OC)c1OC` [Compound 8r, (E)-3-[1-methyl-1H-benzo (d)imidazol-2-yl]-2-(3,4,5-trimethoxybenzoyl)acrylonitrile] had a melting point of 201.8 to 203.1 °C. In addition, the 50% inhibitory concentration (IC50) in data set [1] (setting [4]) was > 20 µM. In data set [2] (setting [5]), the concentration for half-maximal inhibition (IC50) worked out at 24.9 ± 2.02 µM. The IC50 in data set [2] (setting [7]) was 24.9 µM. In addition, in data set [3] (setting [6]), the IC50 was > 20 µM.

Regarding `COc1cc(C(=O)/C(C#N)=C/c2ccc3c(c2)CCO3)cc(OC)c1OC` [Compound 8n, (E)-3-(2,3-dihydrobenzofuran-5-yl)-2-(3,4,5-trimethoxybenzoyl)acrylonitrile], the half-inhibitory concentration (IC50) in data set [1] (setting [4]) is > 20 µM; in data set [2] (setting [5]) it was 9.25 ± 0.141 µM; in data set [3] (setting [6]), > 20 µM.

As for `COC(=O)c1ccc2[nH]cc(/C=C(\C#N)C(=O)c3cc(OC)c(OC)c(OC)c3)c2c1` [Compound 8e, methyl(E)-3-(2-cyano-3-oxo-3-(3,4,5-trimethoxyphenyl)prop-1-en-1-yl)-1H-indole-5-carboxylate], the melting point was > 260 °C. Also, the IC50 in data set [1] (setting [4]) was > 20 µM. Besides, the IC50 in data set [2] (setting [5]) was > 20 µM. The concentration for half-maximal inhibition (IC50) in data set [3] (setting [6]) is > 20 µM.

In the case of `COc1cc(C(=O)/C(C#N)=C/c2ccc3occc3c2)cc(OC)c1OC` [Compound 8m, (E)-3-(benzofuran-5-yl)-2-(3,4,5-trimethoxybenzoyl)acrylonitrile], the melting point lay within 169.7 to 172.1 °C. The 50% inhibitory concentration (IC50) in data set [1] (setting [4]) is > 20 µM. Besides, the half-inhibitory concentration (IC50) in data set [2] (setting [5]) was > 20 µM. For the same compound, the IC50 in data set [3] (setting [6]) was > 20 µM.

Take `COc1cc(C(=O)/C(C#N)=C/c2c[nH]c3ccccc23)cc(OC)c1OC` [Compound 8a, (E)-3-(1H-indol-3-yl)-2-(3,4,5-trimethoxybenzoyl)acrylonitrile]: the melting point was in the range of 224.2 to 229.3 °C. Besides, the IC50 in data set [1] (setting [4]) was determined as 0.934 ± 0.023 µM. In addition, the concentration for half-maximal inhibition (IC50) in data set [1] (setting [9]) stood at 0.94 µM. In data set [2] (setting [5]), the IC50 is 0.14 ± 0.041 µM. The IC50 in data set [2] (setting [7]) came out at 0.14 µM. The IC50 in data set [3] (setting [6]) worked out at 0.938 ± 0.008 µM. The concentration for half-maximal inhibition (IC50) in data set [3] (setting [8]) was 0.938 µM.

`COc1cc(C(=O)/C(C#N)=C/c2csc3ccccc23)cc(OC)c1OC` [Compound 8p, (E)-3-[benzo(b)thiophen-3-yl]-2-(3,4,5-trimethoxybenzoyl)acrylonitrile] returned a melting point of 201.8 to 203.1 °C. Also, the half-maximal inhibitory concentration (IC50) in data set [1] (setting [4]) is > 20 µM. Also, the IC50 in data set [2] (setting [5]) was > 20 µM. Besides, in data set [3] (setting [6]), the IC50 was > 20 µM.

Regarding `COc1cc(C(=O)/C(C)=C/c2cc3ccccc3o2)cc(OC)c1OC` [Compound 7h, (E)-3-(benzofuran-2-yl)-2-methyl-1-(3,4,5-trimethoxyphenyl)prop-2-en-1-one], the melting point is 50.1 to 53.2 °C. The concentration for half-maximal inhibition (IC50) in data set [1] (setting [4]) worked out at 0.254 ± 0.01 µM. Moreover, the IC50 in data set [1] (setting [9]) is 0.255 µM. The 50% inhibitory concentration (IC50) in data set [2] (setting [5]) amounted to 0.224 ± 0.007 µM. In addition, in data set [3] (setting [6]), the IC50 was 0.116 ± 0.007 µM.

For `COc1cc(C(=O)/C(C#N)=C/c2ccc3sc4ccccc4c3c2)cc(OC)c1OC` [Compound 8q, (E)-3-[dibenzo (b,d)thiophen-2-yl]-2-(3,4,5-trimethoxybenzoyl)acrylonitrile], the melting point is 199.7 to 201.1 °C. Moreover, the concentration for half-maximal inhibition (IC50) in data set [1] (setting [4]) is > 20 µM. In data set [2] (setting [5]), the half-inhibitory concentration (IC50) came out at 52.3 ± 3.66 µM. Further, in data set [2] (setting [7]), the half-inhibitory concentration (IC50) amounted to 52.3 µM. Further, the IC50 in data set [3] (setting [6]) was > 20 µM.

For `COc1cc(C(=O)/C(C#N)=C/c2oc3ccccc3c2C)cc(OC)c1OC` [Compound 8i, (E)-3-(3-methylbenzofuran-2-yl)-2-(3,4,5-trimethoxybenzoyl)acrylonitrile], the melting point is 136.7 to 138.5 °C. In addition, the IC50 in data set [1] (setting [4]) is > 20 µM. Moreover, the IC50 in data set [2] (setting [5]) is > 20 µM. Moreover, the concentration for half-maximal inhibition (IC50) in data set [3] (setting [6]) is > 20 µM.
